Laboratory results: US20030049698A1, “Diagnosis and treatment of gastrointestinal disease” (priority 2002, published 2003)

Key:
gastrin deficient mice [1] = experiment: Gastric acid secretion, pyloric ligation, after infusion in gastrin deficient mice; assay type: in vivo; settings: 10 nmol/kg/hr, 4 hours pyloric ligation, saline 5.4±2.0 nEq
Description: Animals were operated and sacrificed under anesthesia with Metofane.
(§1) The mice were fasted 24 hours prior to sacrifice.
After food deprivation for 24 hours, the mice were anesthetized with avertin, the abdominal cavity was incised, and each stomach was rinsed with 1 ml saline through a canula placed in the pylorus. The pylorus was then ligated and the gastric juice was collected 4 hours later (61). The acidity of the gastric contents was measured by titration with 0.02 N NaOH and expressed as H^+ nEq.

gastrin deficient mice [2] = experiment: Gastric fundic mucosa proliferation by BrdU incorporation; assay type: in vivo; settings: infusion 10 nmol/kg/hr; G-17 effect at one day; versus saline or G-17 alone
Description: as §1
Immunohistochemical detection of BrdU incorporation was performed using the avidin-biotin monoclonal antibody technique as previously described (51). Ten well oriented oxyntic glands or colonic crypts were counted per slide. Of the ten colonic crypts, 4 were obtained from the rectum, 3 from the descending colon, and 3 from the ascending colon. The BrdU labeling index was calculated by counting the number of BrdU-positive cells per gland/crypt and expressing the result as a percentage of the total number of cells per gland/crypt.

gastrin deficient mice [3] = experiment: Parietal cell and ECL cell counts by immunohistochemistry; assay type: in vivo
Description: as §1
(§2) At the time of sacrifice, the stomach was divided into thirds longitudinally. One section was fixed in Carnoy's fixative overnight, and then embedded in paraffin. Routine H&E staining was performed. Parietal cells were stained using an antibody to the β subunit of H+/K+-ATPase MA3-923 (Affinity Bioreagents, Golden, Colo.) at a final dilution of 1:100, as previously described (62). Ten well oriented fundic glands were examined for parietal cell number, with the result expressed as number of parietal cells per gland (51).
Small tissue specimens (2×4 mm) were taken from the greater curvature of the oxyntic mucosa. They were fixed either in 4% 1-Ethyl-3(3-dimethylaminopropyl)-carbodiimide hydrochloride (Sigma, St. Louis, Mo.) for histamine staining, or in 4% paraformaldehyde for VMAT-2 staining, for 8-12 h at 4° C., then rinsed with 20% sucrose in 0.1 M phosphate-buffered saline (pH 7.4). Fresh frozen tissue sections were cut in a cryostat (Bright, Huntington, England) at 10 μm thickness. The sections were thawed onto gelatin-coated glass slides. After washing twice for 10 min with phosphate-buffered saline (pH 7.4), containing 0.25% Triton X-100 (PBS-T), the sections were incubated with either histamine antibody 8431 rabbit (Eurodiagnostic, Mahnö, Sweden) at a final dilution of 1:200 or VMAT-2 antibody B-GP 280-1 (Alpha Diagnostic Int., San Antonio, Tex.) at a dilution of 1:2000 overnight at 4° C. After washing twice with PBS-T (10 min each time), the sections were incubated for 1 h at room temperature with FITC-conjugated goat anti-rabbit IgG (Dako, Glostrup, Denmark) for histamine at a 1:40 dilution or donkey anti-guinea pig IgG (Jacksson InmunoResearch, Göteborg, Sweden) for VMAT-2 at a 1:100 dilution. […] The number of immunostained cells were counted and exressed as number per gland of mucosa.
Parietal and ECL cells were stained immunohistochemically as above. At least ten well oriented glands were then assessed for the number of positively stained cells per gland.

H+/K+-ATPase = H+/K+-ATPase expression by immunohistochemical analysis; assay type: in vivo, mice; settings: compared to infusion of saline alone
Description: as §1, §2

gastrin deficient mice [4] = experiment: Electron microscopy of parietal cells (activation, vacuolar canaliculi, lipofuscin bodies); assay type: in vivo
Description: as §1
Small tissue specimens (<1 mm^3) were taken from the oxyntic gland area and immediately immersed in a mixture of […] 1% glutaraldehyde, 3% formaldehyde, 0.075M sodium phoshpate buffer, pH 7.2, for 6 hours. The specimens were post-fixed in 1% osmium tetroxide for 1 hour, dehydrated in graded acetone solutions and embedded in Epon 812. Ultrathin sections (60-80 nm) were cut on a LKB MK III Ultratome, contrasted with uranyl acetate and lead citrate and examined in a Philips CM10 (Philips,) transmission electron microscope (63). Parietal cells were identified by the presence of secretory canuliculi and/or tubulovesicles, and ECL cells were identified by the presence of characteristic granules and vesicles in the cytoplasm. Point counting methods were used to analyze the voulume density of the various organelles as previously described (64,65). The cells were photographed (nucleated profiles only) at 6,000× magnification; the prints were then enlarged to 20,000× for planimetric analysis. Activated parietal cells were defined as cells having secretory canuliculi in their cytoplasm. The percentage of activated parietal cells was determined by analyzing the electron micrographs of 100 parietal cells per group. Vacuolar canaliculi were defined as canuliculi containing lysosomal bodies and/or vacuoles in their lumen. Lipofuscin bodies were identified by their high electron density (osmiophilia) in the cytoplasm.

CCK-B/gastrin receptor = molecular target: T1, CCK-B/gastrin receptor (Rattus norvegicus, UniProt P30553); settings: reportedly; cited from earlier work
T1 sequence (P30553 1-452): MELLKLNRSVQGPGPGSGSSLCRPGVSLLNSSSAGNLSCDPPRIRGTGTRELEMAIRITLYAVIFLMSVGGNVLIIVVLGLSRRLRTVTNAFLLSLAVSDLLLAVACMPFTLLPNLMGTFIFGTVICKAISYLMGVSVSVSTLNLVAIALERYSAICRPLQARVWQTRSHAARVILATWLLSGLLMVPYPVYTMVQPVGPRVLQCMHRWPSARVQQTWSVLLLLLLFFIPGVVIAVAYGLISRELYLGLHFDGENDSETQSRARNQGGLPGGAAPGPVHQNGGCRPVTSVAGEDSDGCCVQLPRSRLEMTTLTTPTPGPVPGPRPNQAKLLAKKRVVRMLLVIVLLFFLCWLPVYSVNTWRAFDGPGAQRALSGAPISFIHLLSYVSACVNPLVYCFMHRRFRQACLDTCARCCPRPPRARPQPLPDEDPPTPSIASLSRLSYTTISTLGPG

For gastrin-17 [G-17], the acid output (gastrin deficient mice [1]; after 14 days of infusion) was 12.0±2.2 nEq, the acid output (gastrin deficient mice [1]; after one day of infusion) was 21.8±8.8 nEq and the acid output (gastrin deficient mice [1]; after six days of infusion) was 37.4±9.4 nEq. For the same molecule, the “proliferation rate of the gastric fundic mucosa (BrdU incorporation)” value (gastrin deficient mice [2]) was “significantly increased proliferation rate”, the “effect on ECL cell number (histamine or VMAT-2 staining)” value (gastrin deficient mice [3]; any time point examined) was “neither G-17, G17-Gly, or the combination influenced ECL cell number” and the “increase in the number of parietal cells compared to saline” value (gastrin deficient mice [3]; by day 14 of infusion) was 65%. For the same molecule, the “effect on parietal cell number (in words)” value (gastrin deficient mice [3]; versus saline, or combination versus G-17 alone) was “significant increase in parietal cell number”, the “effect on H+/K+-ATPase expression (intensity of immunostaining)” value (H+/K+-ATPase) was “no effect on H+/K+-ATPase expression” and the “lipofuscin bodies, percentage of cell volume” value (gastrin deficient mice [4]; 14 day infusion, saline 0.26±0.10%) was 1.88±0.27%. For the same molecule, the “vacuolar canaliculi, percentage of cell volume” value (gastrin deficient mice [4]; 14 day infusion, saline 0.38±0.38%) was 7.50±2.40% and the activated parietal cells (gastrin deficient mice [4]; after 14 days of infusion, saline 27%) was 27%.
In the case of `Cc1cccc(NC(=O)N[C@@H]2N=C(c3ccccc3)c3ccccc3N(CC(=O)c3ccccc3C)C2=O)c1` [YM022], the “potency relative to YF476” value (CCK-B/gastrin receptor) is listed as “about 5 times”.
